From a melting point compilation (Tetko et al.; mined from patent text by program, amines drawn as free bases though some values may be those of a salt) come the findings set out here.

In general, melting point refers to the temperature, or range, at which the solid turns liquid. For the compound `COC(=O)c1cc2c(Cl)cc(F)c(-n3c(=O)cc(C(F)(F)F)n(C)c3=O)c2o1`, the melting point fell in the range of 194 to 196 °C. The compound `CC(=O)Nc1c2c(cc3c1CCC3)CCC2` displayed a melting point of 257 to 259 °C. In turn, `CCOC(=O)Cc1c([N+](=O)[O-])cc(O)c2ccccc12` displayed a melting point of 96 to 100 °C. The figure for `O=C(OCC1OC(n2cnc3c(NOCc4ccccc4)nc(Cl)nc32)C(OC(=O)c2ccccc2)C1OC(=O)c1ccccc1)c1ccccc1` (configuration not stated) is 115 to 119 °C; for `O=C(O)c1cn(-c2ccc(F)cc2)c2cc(N3CCC(N=Cc4ccc([N+](=O)[O-])cc4)C3)c(F)cc2c1=O` (configuration not stated) it is 247 to 248 °C. `CC(C)c1cc2n(CCc3ccccc3)cc(C(=O)O)c(=O)n2n1`: the melting point fell in the range of 220 to 225 °C. The figure for `Clc1nc(NCc2cccc(I)c2)c2[nH]cnc2n1` is 222 to 224 °C; for `O=C(O)c1ccnc(NC(=O)C(CS)Cc2ccccc2)c1` (configuration not stated) it is 234 to 236 °C; for `O=C(Nc1ccccn1)c1cnc2c(c1O)CN(C(=O)OCc1ccccc1)CC2` it is 272 to 274 °C. The figure for `CCOC(=O)Nc1ccc(OC23CC4CC(CC(C4)C2)C3)cc1` is 116 to 118 °C; for `CC(C)CN1C(=O)C(C)(C)C(=O)Nc2ccc(C=O)cc21` it is 208 to 211 °C. The figure for `CCOC(=O)C(C(=O)OCC)C1c2ccccc2C(F)(F)C(F)(F)c2ccccc21` is 144 to 146 °C; for `CCOC(=O)c1c(C)nc2c(nc(C)n2CC)c1OCC` it is 62 to 65 °C. The compound `CN(C)C(=O)c1ccc(CNC(=O)C2Cc3ccccc3N2S(=O)(=O)c2ccc(-c3cccc(C(F)(F)F)c3)cc2)cc1` (configuration not stated) had a melting point of 70 °C. In the case of `NN(c1ccccc1)C1CCS(=O)(=O)C1` (configuration not stated), the melting point lay within 120 to 121 °C.

Turning to `Cc1cc(C(N)=O)c2c(c1)C(C(Cl)(Cl)Cl)OC(C(Cl)(Cl)Cl)O2` (configuration not stated), the melting point fell in the range of 281 to 283 °C. The figure for `CCC(CC)n1cc(C)nc(Nc2c(C)cc(C)cc2C)c1=O` is 109 °C; for `CCC(CO)(CO)Nc1ncc2cc(Oc3ccc(F)cc3F)ccc2n1` it is 110 to 113 °C. On to `Cc1c(-c2ccccc2Cl)n(-c2ccccc2Cl)c(-c2ccccc2Cl)cc1=O`, for which the melting point lay in the range of 205 to 207 °C. The figure for `C=C(Cn1ccnc1)c1cc(F)ccc1OCc1c(Cl)cccc1Cl` is 106 to 108 °C; for `O=C(c1ccccc1)N1CCC(CSc2ccccc2)CC1` it is 76 to 79 °C; for `Nc1sc2c(c1C(=O)c1ccc(Br)s1)CCN(Cc1ccccc1)C2` it is 87 to 89 °C. The figure for `COc1ccc(N2C(=O)C(O[Si](C(C)C)(C(C)C)C(C)C)C2c2ccc(C(F)(F)F)cc2)cc1` (configuration not stated) is 132 to 133 °C; for `Nc1ccccc1Oc1cccc2c1NC(=O)C2` it is 210 to 212 °C.

In turn, `Cc1ccc(S(=O)(=O)OCC2COc3ccccc3C2)cc1` (configuration not stated) yielded a melting point of 83 to 84 °C. As to `O=C(O)CCC(=O)OCCn1ccnc1`, the melting point was in the range of 108 to 110 °C. `COc1cc(N)c(Cl)cc1C(=O)NCC1CCN(CCCCCNC(=O)Nc2ccc(Cl)cc2)CC1` registered a melting point of 204 to 206 °C. For the compound `CCN1C(=O)C(C)(C)C(=O)N(C)c2cc(OCCCN3C(=O)Cc4ccccc43)ccc21`, the melting point lay within 146 to 149 °C. The figure for `CC(F)(F)c1ccc(Oc2ccc(C3CCCN4CCS(=O)(=O)N=C34)cc2)cc1` (configuration not stated) is 171 to 172 °C; for `CCOc1nc(C(F)(F)C(F)(F)F)cc(=O)n1-c1cc(O)c(Cl)cc1F` it is 117 to 120 °C. Compound `CC1=CC2CC(O)CCC2(C)C2=C1C1CCC(C(C)CCCC(C)C)C1(C)CC2` (configuration not stated) yielded a melting point of 112 to 113 °C. The figure for `O=C1COCc2cc(Br)ccc21` is 144 to 146 °C. The figure for `O=C(Cc1cccs1)N1C(=O)OC[C@@H]1Cc1ccccc1` is 56 to 59 °C; for `CCCC/C(=C\C=C\C(=O)O)c1cccc(OC)c1` it is 77.5 to 78.5 °C. The figure for `CCn1cc(C(=O)O)c(=O)c2cc(F)c(N3CC(C)(NC(=O)C(F)(F)F)C3)c(F)c21` is 196 to 210 °C; for `CCOC(=O)Cc1ccc(CCC(NC(=O)OC)C(=O)O)cc1` (configuration not stated) it is 108 to 110 °C. `COc1ccc2c(n1)C1(CO2)C(=O)Nc2ccccc21` (configuration not stated) displayed a melting point of 199 to 200 °C. The compound `CCN(CC)C(=O)Oc1c(N2CCCC2)c(=O)n(-c2ccccc2)c2ncccc12` registered a melting point of 158 to 160 °C. The figure for `CCOC(=O)CCc1cc2c(c(Br)c1Br)OCC2` is 42 to 43 °C; for `O=C(O)c1ccc(OCCn2ccnc2)c(Cl)c1` it is 204 °C; for `CCc1ccc2c(c1)OC1(O)c3ccccc3C(=O)C21O` (configuration not stated) it is 168 to 169 °C. For `Cc1c(CC(=O)O)oc2ccccc12`, the melting point was found to be 108 °C. With `O=c1cc(-c2ccncc2)nc2n1CCCN2`, the melting point stood at 219 °C.

For the compound `CNc1nc(N)nc(-c2ccccc2)c1-c1ccc(=O)n(C(C)C)n1`, the melting point lay in the range of 268 to 270 °C. The figure for `CCOc1ccc(-c2nc(C=Cc3ccccc3)cs2)cc1OCC` is 94 to 95 °C; for `CCOc1ccc(C(=O)c2c(N)sc3c2CCN(C(=O)OCc2ccccc2)C3)cc1` it is 197 to 198 °C. The figure for `O=C(Cc1ccccc1)Nc1ncc(-c2ccc(O)cc2)nc1Cc1ccccc1` is 259 to 261 °C. Compound `COc1cc(C=CC(=O)OC2CC3CC(OC(=O)c4cc(OC)c(OC)c(OC)c4)CC2N3C)cc(OC)c1OC` (configuration not stated) returned a melting point of 40 to 42 °C. For `Oc1ccc2nc(-c3ccc4ccccc4c3)oc2c1`, the melting point worked out at 226 °C.

As to `Cc1cn2cccc(OCc3c(Cl)ccc(S(=O)(=O)N4CCC[C@H]4C(=O)NCCCNC(=O)c4ccc(C=NN)cc4)c3Cl)c2n1`, the melting point was 120 to 125 °C.

`CCC(CC)N(Cc1ccc(C(=O)O)cc1)S(=O)(=O)c1ccc(C)cc1` had a melting point of 86 to 88 °C. In the case of `CCOC(=O)c1nc(-c2ccc(=O)n(CC)c2)c(-c2ccccc2)nc1N`, the melting point was in the range of 175 to 179 °C.

In turn, `N#Cc1ccc2c(c1)C(=O)C1(CC1)O2` displayed a melting point of 148 to 149 °C. The figure for `CC(=O)OC1CC2CCC3C4CC(N5CCCCC5)C(=O)C4(C)CCC3C2(C)CC1N1CCCCC1` (configuration not stated) is 154 °C; for `COc1ccc2nc(COc3ccc(CC(C(N)=O)S(C)(=O)=O)cc3)n(C)c2c1` (configuration not stated) it is 233 to 236 °C.

On to `O=C(O)CCc1ccc(CNC(=O)C2Cc3ccccc3N2S(=O)(=O)c2ccc(-c3cccc(C(F)(F)F)c3)cc2)cc1` (configuration not stated), for which the melting point is 85 °C. The figure for `CN(C)S(=O)(=O)c1cccc(-c2cc(-c3nc(-c4ccc(C(F)(F)F)cc4)cc(C(F)(F)F)n3)ccn2)c1` is 225 °C. The figure for `CN1CCN(c2cnc(-c3cc(Cl)cc(Cl)c3Cl)c(N)n2)CC1` is 185 °C; for `C=COC(=O)N1CC2C(=O)C=CC(c3ccccc3)(c3ccccc3)C2C1` (configuration not stated) it is 162 °C; for `CCOC(=O)Cc1nc2cc(C)ccc2o1` it is 68 to 69 °C. The figure for `CON=C1C=CC=CC1CC(=O)OC` (configuration not stated) is 96 to 97 °C. For the compound `CNc1nc(Br)cc(S(=O)(=O)c2ccc(N)cc2)n1`, the melting point was more than 250 °C. The figure for `CC(C)OC(=O)C(C)(C)c1cn2nc(Cl)ccc2n1` is 100 to 101 °C; for `CC(C)CNC(=O)/C=C/C=C/CCCCCCOCc1cccc(C(F)(F)F)c1` it is 48 to 50 °C; for `O=C(CP(=O)(O)CCCCc1ccccc1)OCc1ccccc1` it is 64 to 67 °C. With `CCS(=O)(=O)N(C(C)=O)c1cc(-n2nc3ccc(Cl)cn3c2=O)c(F)cc1C#N`, the melting point was 220 to 222 °C. The figure for `CC(C)(C)c1cc(-c2nn(CCCO)c3ncccc23)cc(C(C)(C)C)c1O` is 143 to 144 °C; for `OC1CCCCC1Oc1cccc(COc2cccc3cccnc23)c1` (configuration not stated) it is 109 to 110 °C. The figure for `CC(C)=CCC(C(=O)O)C(=O)N(Nc1ccccc1)c1ccccc1` (configuration not stated) is 166 °C; for `CCOC(=O)N1C(=O)C2(COc3cc4c(cc32)OCCO4)c2ccccc21` (configuration not stated) it is 198 to 200 °C. For the compound `O=c1c2ccc(Cl)cc2n(Cc2ccccc2)n2cccc12`, the melting point was in the range of 163 to 165 °C. The figure for `Cc1c(C2CCN(Cc3ccccc3)CC2)n[nH]c1-c1ccc(Cl)cc1` is 188 to 190 °C; for `COC(=O)c1cccc(-c2nc(C(=O)c3ccc(N)c(C(=O)OC)c3)n3ccccc23)c1` it is 203 °C; for `COC(=O)c1ccc(C(=O)C2=C(C)C(=O)c3ccccc3C2=O)cc1` it is 162 °C. The figure for `CN1CCC(NC(=O)C2c3ccccc3NC(=O)c3ccccc32)CC1` (configuration not stated) is 230 to 231 °C; for `COc1ccc(-c2ccc(COc3cccc4cc(NS(=O)(=O)C(F)(F)F)ccc34)c(F)c2)cc1` it is 108 to 111 °C; for `O=c1[nH]c2cc(Cl)c(Cl)cc2n1CCCO` it is 175 °C.

Regarding `Cc1c(C)c2c(c(Br)c1N)C(c1ccc(C(C)C)cc1)CO2` (configuration not stated), the melting point fell in the range of 191 to 193 °C. The compound `CNC(=O)c1cc(F)c(Cl)cc1Oc1cccc(OC)c1C` came in with a melting point of 127 to 128 °C. In turn, `Cc1nc2ccnc(-c3ccccc3)n2n1` came in with a melting point of 68 to 71 °C. `COc1cc(-c2ccccc2C)ccc1C(=O)N1Cc2ccc(C(=O)O)n2Cc2ccccc21` registered a melting point of 144 to 146 °C. `CC(=O)OCCc1ccc2c(c1)Cc1ccccc1O2`: the melting point was in the range of 62 to 64 °C. The figure for `CN1Cc2c(-c3noc(CN4CCCC(C)(C)C4)n3)ncn2-c2ccccc2C1=O` is 167 to 168 °C; for `Clc1nc2ccccc2c2c1ncn2Cc1ccccn1` it is 217 to 220 °C; for `CCN(CC)C1=C2N=c3cc(Cl)ccc3=C2Oc2ccccc2N1C` it is 127 to 128 °C. In the case of `Cc1cc(CCCOc2c(C)cc(-c3noc(CI)n3)cc2C)on1`, the melting point lay within 89 to 90 °C. In turn, `CCN1CCC2(c3cccc(O)c3)Cc3[nH]c(C(=O)N(CC)CC)c(C)c3CC2C1` (configuration not stated) showed a melting point of 221 to 223 °C.
